{"source": "patent US20240238250A1", "about": "“METHOD OF USING PIROMELATINE FOR TREATING PARASOMNIAS ASSOCIATED WITH LOSS OF REM SLEEP ATONIA” (NEURIM PHARMACEUTICALS (1991) LTD., priority 2023, published 2024)", "key": {"[1]": {"tested_on": "patients with primary insomnia", "assay": "NREM sleep EEG spectral power after 4-week treatment, 3-arm parallel group study versus placebo", "assay_type": "in vivo, human", "details": "4-wks treatment, 20 and 50 mg; compared to baseline and to placebo", "experimental": "(§1) NREM sleep EEG power was calculated to evaluate the effects of chronic (4-week) administration of 20 mg and 50 mg piromelatine compared to those of placebo in patients with primary insomnia. Sleep EEG was recorded in 9 different centers in the frame of a 3-arm parallel group study with a random allocation of patients to one of the three treatment group (i.e., of the 121 patients who had exploitable sleep EEG data, 42 received placebo, 39 received piromelatine 20 mg, and 40 received piromelatine 50 mg).\n(§2) Spectral power was calculated for all-night) and NREM sleep for the total EEG spectrum [0.5; 32] Hz and in the following frequency bands: delta [0.5; 4] Hz, theta [4; 8] Hz, alpha [8; 13] Hz, sigma [11.5; 15.5] Hz, beta [15.5; 32] Hz, beta1 [15.5; 20.5] Hz, beta2 [20.5; 25.5] Hz, and beta3 [25.5; 32] Hz."}, "[2]": {"tested_on": "patients with primary insomnia", "assay": "REM sleep EEG spectral power after 4-week treatment, 3-arm parallel group study versus placebo", "assay_type": "in vivo, human", "details": "for REM EEG spectral power, Alpha power ([8; 13] Hz) / REM EEG spectral power, Beta1 power ([15.5; 20.5] Hz) / REM EEG spectral power, Beta2 power ([20.5; 25.5] Hz) / REM EEG spectral power, Beta3 power ([25.5; 32] Hz) / REM EEG spectral power, Beta power ([15.5; 32] Hz) / REM EEG spectral power, Delta power ([0.5; 4] Hz) / REM EEG spectral power, Sigma power ([11.5; 15.5] Hz) / REM EEG spectral power, Theta power ([4; 8] Hz) / REM EEG spectral power, Total EEG power ([0.5; 32] Hz): 4 wks, whole night sleep", "experimental": "as §1, with “REM” for “NREM”\nas §2, with “REM” for “NREM”\nNote, REM sleep is longest during the third part of the night."}}, "note": "Entries after “also recorded” stand apart in the source; their conditions may differ.", "data": [{"smiles": "COc1ccc2[nH]cc(CCNC(=O)c3cc(=O)cco3)c2c1", "note": "[Piromelatine, N-(2-(5-methoxy-1H-indol-3-yl)ethyl)-4-oxo-4H-pyran-2-carboxamide]", "values": [{"measurement": "effect on NREM low frequency band (0.5-1.5 Hz) (in words)", "setting": "[1]", "result": "can increase the NREM low frequency band"}, {"measurement": "effect on REM sleep alpha power band (in words)", "setting": "[2]; 4-wks treatment, 20 and 50 mg, compared to baseline and to placebo, in particular during the longest REM period in the third part of the night sleep", "result": "increases the spectral power in the a band during REM sleep; also recorded: enhances the REM sleep alpha power band"}, {"measurement": "effect on other frequencies during REM sleep (in words)", "setting": "[2]; patients with insomnia aged 20-80 years", "result": "minor or no changes in other frequencies"}, {"measurement": "REM EEG spectral power, Alpha power ([8; 13] Hz)", "setting": "[2]; piromelatine 20 mg, n = 39", "result": "103.36 % of baseline values"}, {"measurement": "REM EEG spectral power, Beta1 power ([15.5; 20.5] Hz)", "setting": "[2]; piromelatine 20 mg, n = 39", "result": "100.36 % of baseline values"}, {"measurement": "REM EEG spectral power, Beta2 power ([20.5; 25.5] Hz)", "setting": "[2]; piromelatine 20 mg, n = 39", "result": "98.51 % of baseline values"}, {"measurement": "REM EEG spectral power, Beta3 power ([25.5; 32] Hz)", "setting": "[2]; piromelatine 20 mg, n = 39", "result": "97.56 % of baseline values"}, {"measurement": "REM EEG spectral power, Beta power ([15.5; 32] Hz)", "setting": "[2]; piromelatine 20 mg, n = 39", "result": "98.95 % of baseline values"}, {"measurement": "REM EEG spectral power, Delta power ([0.5; 4] Hz)", "setting": "[2]; piromelatine 20 mg, n = 39", "result": "100.29 % of baseline values"}, {"measurement": "REM EEG spectral power, Sigma power ([11.5; 15.5] Hz)", "setting": "[2]; piromelatine 20 mg, n = 39", "result": "100.34 % of baseline values"}, {"measurement": "REM EEG spectral power, Theta power ([4; 8] Hz)", "setting": "[2]; piromelatine 20 mg, n = 39", "result": "101.45 % of baseline values"}, {"measurement": "REM EEG spectral power, Total EEG power ([0.5; 32] Hz)", "setting": "[2]; piromelatine 20 mg, n = 39", "result": "99.76 % of baseline values"}, {"measurement": "REM EEG spectral power, Beta1 power ([15.5; 20.5] Hz)", "setting": "[2]; piromelatine 50 mg, n = 40", "result": "98.19 % of baseline values"}, {"measurement": "REM EEG spectral power, Beta2 power ([20.5; 25.5] Hz)", "setting": "[2]; piromelatine 50 mg, n = 40", "result": "99.93 % of baseline values"}, {"measurement": "REM EEG spectral power, Beta3 power ([25.5; 32] Hz)", "setting": "[2]; piromelatine 50 mg, n = 40", "result": "97.73 % of baseline values"}, {"measurement": "REM EEG spectral power, Beta power ([15.5; 32] Hz)", "setting": "[2]; piromelatine 50 mg, n = 40", "result": "99.55 % of baseline values"}, {"measurement": "REM EEG spectral power, Delta power ([0.5; 4] Hz)", "setting": "[2]; piromelatine 50 mg, n = 40", "result": "103.73 % of baseline values"}, {"measurement": "REM EEG spectral power, Sigma power ([11.5; 15.5] Hz)", "setting": "[2]; piromelatine 50 mg, n = 40", "result": "103.14 % of baseline values"}, {"measurement": "REM EEG spectral power, Theta power ([4; 8] Hz)", "setting": "[2]; piromelatine 50 mg, n = 40", "result": "105.03 % of baseline values"}, {"measurement": "REM EEG spectral power, Total EEG power ([0.5; 32] Hz)", "setting": "[2]; piromelatine 50 mg, n = 40", "result": "105.33 % of baseline values"}, {"measurement": "REM EEG spectral power, Alpha power ([8; 13] Hz)", "setting": "[2]; piromelatine 50 mg, n = 40, * significant difference (P < 0.05) compared to placebo", "result": "106.55* % of baseline values"}]}]}
